“Also recorded” adds a separate entry of the source. Read-outs that look alike come from different tables or passages of the source.

For one experiment, the target named is T1, HBM (Homo sapiens, UniProt O75197, G171V).
T1 construct: Full length Zmax/LRP5 and HBM ORF cDNA; expressed in transfected cells; host or cells: HOB-03-CE6 osteoblastic cells; U2OS osteosarcoma cells; HEK293
The experiment in a line: Cell-based TCF reporter high-throughput assay, HBM cDNA. The settings on record: U2OS cells, Wnt1 or Wnt3a/Wnt1 co-transfected, FIG. 20. The source says: To develop a high throughput assay, the TCF-luciferase assay described in Example 7 was modified utilizing low level expression of endogenous LRP5/6 in U2OS and HEK293 cells. However, HOB-03-CE6 cells and any other cells which show a differential response to Dkk depending on whether LRP5, LRP6 or HBM are expressed. Using U2OS (human osteosarcoma) and HEK293 (ATCC) cells, the TCF-luciferase and tk-Renilla reporter element constructs were co-transfected along with Wnt3a/1 and Dkk. Wnt3a alone, by using endogenous LRP5/6, was able to stimulate TCF reporter gene activation. When Dkk, is co-transfected with Wnt3a/Wnt 1 and reporters (TCF-luci and tk-Renilla), DEkk represses reporter element activity. In addition, the TCF-luci signal is activated by Wnt3a/Wnt1 can be repressed by the addition of Dkk-enriched conditioned media to the cells containing Wnt3a/Wnt1 and reporters.
The Dkk-mediated repression of the reporter is dependent upon the concentration of transfected Dkk cDNA or on the amount of Dkk-conditioned media added. In addition, the Dkk-mediated reporter suppression can be altered by the co-transfection of LRP5, LRP6, and HBM cDNAs in the U2OS or HEK293 cells. In general, U2OS cells show greater sensitivity to Dkk-mediated reporter suppression than that in HEK-293 cells. […]

The subject of the next experiment is canonical Wnt pathway. Description: Xenopus embryo assay, hDkk-1 dose-response (enlarged anterior structures). The experiment is classed as in vivo. The settings on record: 250 pg/embryo hDkk-1 RNA; FIG. 10. The procedure:
mRNA for microinjection into Xenopus embryos is generated by in vitro transcription using the CDNA constructs in the pCS2^+ vector described above as template. RNA is synthesized using the Ambion mMessage mMachine high yield capped RNA transcription kit (Cat. #1340) following the manufacturer's specifications for the Sp6 polymerase reactions. RNA products were brought up to a final volume of 50 μl in sterile, glass-distilled water and purified over Quick Spin-Columns for Radiolabelled RNA Purification G50-Sephadex (Roche, Cat. #1274015) following the manufacturer's specifications. The resulting eluate was finally extracted with phenol:chloroform:isoamyl alcohol and isopropanol precipitated using standard protocols (Sambrook et al., 1989). Final RNA volumes were approximately 50 μl. RNA concentration was determined by absorbance values at 260 nm and 280 nm. RNA integrity was visualized by ethidium bromide staining of denaturing (formaldehyde) agarose gel electrophoresis (Sambrook et al., 1989). Various amounts of RNA (2 pg to 1 ng) are injected into the ventral blastomere of the 4- or 8-cell Xenopus embryo. These protocols are described in Moon et al., Technique-J. of Methods in Cell and Mol. Biol. 1: 76-89 (1989), and Peng, Meth. Cell. Biol. 36: 657-62 (1991). […]

The next experiment addresses LRP6 (Homo sapiens, UniProt O75581). The settings on record: cited from earlier work.
The test system of a further experiment is LRP5 LBD. Description: Yeast-2 hybrid interaction trap LRP5 LBD-LexA / Gal4AD-Dkk. Format: binding. The settings on record: LRP5LBD-LexA bait and Gal4AD-Dkk prey. An excerpt: Small molecule inhibitors (or partial inhibitors) of the Dkk-LRP interaction may be an excellent osteogenic therapeutic. One way to investigate this important protein-protein interaction is using Y2H techniques substantially as described above and as is well known in the art. […] This interaction is quantitated using a reporter element known in the art, e.g., LacZ or luciferase, which is only activated when bait and prey interact. The Y2H assay is used to screen for compounds which modulate the LRP-Dkk interaction. Such a modulation would be visualized by a reduction in reporter element activation signifying a weaker or disrupted interaction, or by an enhancement of the reporter element activation signifying a stronger interaction. Thus, the Y2H assay can be used as a high-throughput screening technique to identify compounds which disrupt or enhance Dkk interaction with LRP5/LRP6/HBM, which may serve as potential therapeutics.
For example, the Interaction Trap methodology can be used as follows. […] With the LRP5LBD-LexA bait and the Gal4AD-Dkk prey, over a 20-fold activation of a lacZ reporter (under the control of a single LexA operator) was detected over the background. […] As a result, small molecules may be identified that modulate this interaction between LRP and Dkk.

The next experiment concerns canonical Wnt signaling. The settings on record: Bafico et al.; Dkk-1 added at 30 pM; cited from earlier work.
The test system of another experiment is endogenous LRP5/6. Description: Cell-based TCF reporter high-throughput assay, endogenous LRP5/6. Further details: species or system human. The settings on record: U2OS cells, no Wnt3a/Wnt1 transfection, FIG. 21. The source says:
To develop a high throughput assay, the TCF-luciferase assay described in Example 7 was modified utilizing low level expression of endogenous LRP5/6 in U2OS and HEK293 cells. […] Using U2OS (human osteosarcoma) and HEK293 (ATCC) cells, the TCF-luciferase and tk-Renilla reporter element constructs were co-transfected along with Wnt3a/1 and Dkk.

T1 sequence (O75197 32-1615 G171V): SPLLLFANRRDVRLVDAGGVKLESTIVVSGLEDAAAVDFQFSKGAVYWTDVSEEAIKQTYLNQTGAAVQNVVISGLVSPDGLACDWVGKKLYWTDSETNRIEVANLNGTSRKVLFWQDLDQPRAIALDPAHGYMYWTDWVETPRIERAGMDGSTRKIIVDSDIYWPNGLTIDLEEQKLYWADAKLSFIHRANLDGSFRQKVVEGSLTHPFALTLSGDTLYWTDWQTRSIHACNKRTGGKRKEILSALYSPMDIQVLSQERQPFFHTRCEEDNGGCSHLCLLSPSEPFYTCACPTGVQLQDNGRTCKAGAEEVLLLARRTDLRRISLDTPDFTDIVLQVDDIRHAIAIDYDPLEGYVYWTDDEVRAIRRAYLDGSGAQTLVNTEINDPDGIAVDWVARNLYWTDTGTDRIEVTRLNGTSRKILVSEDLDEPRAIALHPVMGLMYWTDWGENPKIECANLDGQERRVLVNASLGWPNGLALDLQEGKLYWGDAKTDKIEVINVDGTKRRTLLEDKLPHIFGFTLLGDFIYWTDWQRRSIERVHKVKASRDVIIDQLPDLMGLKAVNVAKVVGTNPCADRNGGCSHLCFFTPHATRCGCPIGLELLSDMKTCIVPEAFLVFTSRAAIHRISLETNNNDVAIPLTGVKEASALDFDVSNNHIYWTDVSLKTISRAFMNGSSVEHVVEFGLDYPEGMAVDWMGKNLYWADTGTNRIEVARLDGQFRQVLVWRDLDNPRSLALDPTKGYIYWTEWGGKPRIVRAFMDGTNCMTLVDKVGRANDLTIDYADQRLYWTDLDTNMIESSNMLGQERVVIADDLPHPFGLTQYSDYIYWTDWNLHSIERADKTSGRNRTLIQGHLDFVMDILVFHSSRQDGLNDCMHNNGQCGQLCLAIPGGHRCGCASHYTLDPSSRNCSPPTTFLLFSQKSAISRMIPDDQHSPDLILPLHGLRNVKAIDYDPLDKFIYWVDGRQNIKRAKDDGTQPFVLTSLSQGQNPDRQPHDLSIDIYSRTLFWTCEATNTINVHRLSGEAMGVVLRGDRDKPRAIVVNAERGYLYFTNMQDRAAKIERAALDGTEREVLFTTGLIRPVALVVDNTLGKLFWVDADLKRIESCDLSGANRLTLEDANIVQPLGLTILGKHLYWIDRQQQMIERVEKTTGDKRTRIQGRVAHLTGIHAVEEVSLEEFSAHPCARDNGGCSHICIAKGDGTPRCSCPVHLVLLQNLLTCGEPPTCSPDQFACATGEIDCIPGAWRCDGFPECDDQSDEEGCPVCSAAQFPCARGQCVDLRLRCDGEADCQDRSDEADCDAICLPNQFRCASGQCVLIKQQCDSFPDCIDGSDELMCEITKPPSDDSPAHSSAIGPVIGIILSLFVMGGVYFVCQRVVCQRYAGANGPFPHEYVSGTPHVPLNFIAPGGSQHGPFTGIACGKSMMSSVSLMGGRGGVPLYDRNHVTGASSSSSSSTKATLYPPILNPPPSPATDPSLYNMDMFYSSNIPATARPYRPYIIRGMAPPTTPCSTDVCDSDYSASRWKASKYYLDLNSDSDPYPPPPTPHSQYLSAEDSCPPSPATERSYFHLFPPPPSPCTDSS
Chain of LRP6 (O75581 20-1613, species assumed): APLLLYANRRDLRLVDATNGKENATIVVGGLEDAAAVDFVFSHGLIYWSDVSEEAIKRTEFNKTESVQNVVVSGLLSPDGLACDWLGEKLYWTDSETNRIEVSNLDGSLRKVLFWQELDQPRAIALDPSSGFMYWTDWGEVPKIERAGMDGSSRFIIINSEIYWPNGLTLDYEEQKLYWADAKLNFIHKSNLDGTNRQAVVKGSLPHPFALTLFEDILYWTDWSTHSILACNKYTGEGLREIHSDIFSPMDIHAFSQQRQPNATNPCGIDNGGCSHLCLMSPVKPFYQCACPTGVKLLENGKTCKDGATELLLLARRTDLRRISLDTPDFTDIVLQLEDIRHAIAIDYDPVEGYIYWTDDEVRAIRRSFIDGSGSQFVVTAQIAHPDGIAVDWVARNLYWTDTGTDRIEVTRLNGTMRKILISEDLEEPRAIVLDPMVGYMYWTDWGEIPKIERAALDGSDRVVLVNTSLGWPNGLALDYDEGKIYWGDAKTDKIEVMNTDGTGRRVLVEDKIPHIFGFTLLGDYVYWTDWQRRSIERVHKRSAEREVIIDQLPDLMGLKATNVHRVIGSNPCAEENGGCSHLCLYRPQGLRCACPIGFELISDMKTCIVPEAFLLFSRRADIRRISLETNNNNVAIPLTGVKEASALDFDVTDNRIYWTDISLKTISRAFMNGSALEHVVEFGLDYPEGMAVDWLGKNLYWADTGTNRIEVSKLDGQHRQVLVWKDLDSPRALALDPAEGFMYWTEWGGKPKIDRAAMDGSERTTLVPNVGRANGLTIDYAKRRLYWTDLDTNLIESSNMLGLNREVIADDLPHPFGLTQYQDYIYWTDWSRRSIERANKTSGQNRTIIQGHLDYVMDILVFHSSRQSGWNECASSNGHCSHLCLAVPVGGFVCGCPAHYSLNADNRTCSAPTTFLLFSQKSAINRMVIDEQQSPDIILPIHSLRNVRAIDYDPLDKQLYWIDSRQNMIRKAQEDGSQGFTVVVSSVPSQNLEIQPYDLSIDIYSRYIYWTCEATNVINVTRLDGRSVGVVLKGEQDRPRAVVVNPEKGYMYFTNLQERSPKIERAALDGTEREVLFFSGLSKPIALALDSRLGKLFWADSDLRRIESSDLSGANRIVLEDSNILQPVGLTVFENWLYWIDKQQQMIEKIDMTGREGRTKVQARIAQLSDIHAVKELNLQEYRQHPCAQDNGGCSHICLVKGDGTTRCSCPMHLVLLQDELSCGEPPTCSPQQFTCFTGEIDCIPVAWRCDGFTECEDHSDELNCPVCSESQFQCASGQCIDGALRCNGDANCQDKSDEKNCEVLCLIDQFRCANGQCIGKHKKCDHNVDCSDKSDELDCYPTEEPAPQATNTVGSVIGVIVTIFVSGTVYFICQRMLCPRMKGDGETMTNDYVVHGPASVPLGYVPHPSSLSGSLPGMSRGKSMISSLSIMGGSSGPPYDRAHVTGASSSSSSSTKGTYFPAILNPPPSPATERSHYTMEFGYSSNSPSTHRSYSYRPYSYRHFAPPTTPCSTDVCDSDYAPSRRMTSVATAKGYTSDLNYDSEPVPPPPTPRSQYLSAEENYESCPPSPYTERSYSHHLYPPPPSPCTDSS
Chain of LRP5 LBD (as listed by the source): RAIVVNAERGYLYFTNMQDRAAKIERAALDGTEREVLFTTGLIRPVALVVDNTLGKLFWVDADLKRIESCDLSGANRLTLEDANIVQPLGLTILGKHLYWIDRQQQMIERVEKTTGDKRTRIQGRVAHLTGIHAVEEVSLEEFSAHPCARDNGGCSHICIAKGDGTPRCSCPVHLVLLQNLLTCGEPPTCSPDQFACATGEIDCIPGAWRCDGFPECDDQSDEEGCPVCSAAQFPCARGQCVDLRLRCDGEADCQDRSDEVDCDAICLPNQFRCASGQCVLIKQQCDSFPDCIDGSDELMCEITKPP

Consider “Dkk-1: Dickkopf-1 protein, antagonist of the Wnt pathway; expressed from human cDNA (RNA or plasmid)”, for which the “Dkk-mediated repression of HBM signaling (TCF reporter)” value with HBM is listed as “not efficiently inhibited; also recorded: little or no effect”; with HBM (listed as Dkk1) it was “least”. In addition, the “embryos displaying enlarged anterior structures (big heads)” value in the experiment on canonical Wnt pathway is reported as “over 90%”. Besides, the Kd in the experiment with LRP6 (Bafico et al., 125I-labeled Dkk-1) was 390 pM; with LRP6 (Mao et al., classical biochemical ligand-receptor studies) it was 340 pM. The “activation of lacZ reporter over the background” value in the experiment on LRP5 LBD is on record as above 20 fold. In the experiment on canonical Wnt signaling, the “functional consequence of Dkk-1/LRP6 interaction on canonical Wnt signaling” value is reported as “repression of the canonical Wnt signaling”. In addition, the figures for the “modulation of TCF signal without Wnt DNA transfection” value in the experiment with endogenous LRP5/6 and with endogenous LRP5/6 (listed as Dkk1) were “can be modulated” and “can repress TCF-luci”, respectively.

These data come from patent US7700101B2, “Reagents and method for modulating Dkk-mediated interactions” (Wyeth, priority 2001, dated 2010).
